The values below are quoted from earlier work in patent US20090082349A1, “THIAZOLONES FOR USE AS PI3 KINASE INHIBITORS” (priority 2006, published 2009).

Molecules are shown by their SMILES. Where two headings read alike, the source gives them in different places.

In one series the test system is Class I PI3-kinases. The settings on record: each of the four Class I PI3-kinases.
Another series has as its target CK2 protein kinase (Homo sapiens, UniProt P68400).

Sequence of CK2 protein kinase (P68400 whole entry): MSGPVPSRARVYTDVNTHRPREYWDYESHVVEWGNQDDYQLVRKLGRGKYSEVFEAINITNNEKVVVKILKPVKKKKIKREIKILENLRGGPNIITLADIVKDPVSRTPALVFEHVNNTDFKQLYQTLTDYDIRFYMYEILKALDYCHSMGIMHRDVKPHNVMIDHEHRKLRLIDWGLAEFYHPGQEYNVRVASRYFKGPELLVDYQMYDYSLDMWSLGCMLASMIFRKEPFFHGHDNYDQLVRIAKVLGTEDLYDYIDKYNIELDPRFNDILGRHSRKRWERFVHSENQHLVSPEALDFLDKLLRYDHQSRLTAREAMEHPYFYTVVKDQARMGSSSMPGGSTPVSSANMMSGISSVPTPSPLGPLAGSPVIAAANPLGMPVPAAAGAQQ

For orientation: IC50 means the midpoint of a concentration-inhibition curve. For the compound `O=c1cc(N2CCOCC2)oc2c(-c3ccccc3)cccc12` [LY294002], the IC50 was 15 to 20 µM in the series with Class I PI3-kinases (Fruman et al. 1998, read-out: IC50 against each of these PI3-kinases) and 5 to 10 µM at CK2 protein kinase.

On to `COC[C@H]1OC(=O)c2coc3c2[C@@]1(C)C1=C(C3=O)[C@@H]2CCC(=O)[C@@]2(C)C[C@H]1OC(C)=O` [wortmannin], for which, in the series on Class I PI3-kinases (read-out: IC50 against each of the various Class I PI3-kinases), the IC50 is 0.001 to 0.01 µM.
